{"source": "patent US6649797B2", "about": "“Compounds and methods of use to treat infectious diseases” (The Picower Institute for Medical Research, priority 1996, dated 2003)", "key": {"HIV-1ADA": {"system": "HIV-1ADA", "assay": "Anti-HIV activity in primary human monocytes, day 9 (Table IX, FIG. 12C)", "type": "cell-based", "protocol": "Monocytes infected with HIV-1ADA were cultured in the presence of CNI-H0294 and CNI-H3094 in various concentrations. Nine days after infection, RT activity in culture supernatants was quantified. The results are presented as percent of total RT activity in untreated cultures (control). Three independent samples were assayed for each drug concentration, and the standard deviation was less than 15%.\n[…] A 50% inhibitory concentration (IC50) was determined at day 9 after infection."}, "[1]": {"system": "HIV-1 pre-integration complexes / karyopherin α", "assay": "Binding of HIV-1 pre-integration complexes to GST-karyopherin α", "type": "biochemical", "protocol": "Cytoplasmic lysates of H9 cells infected with HIV-1RF (upper panel) or HIV-like pseudovirions (bottom panel) were treated for 2 hours with various concentrations of CNI-H0294, and were then mixed with GST-karyopherin α immobilized on glutathione Sepharose beads. HIV-1 DNA or RNA that co-precipitated with karyopherin α was quantified as in A and B.\nCytoplasmic lysates prepared from H9 cells infected with HIV-1RF were treated with 10 μM CNI-H3094 (lane 1) or with 1 μM CNI-H0294 and 10 μM (lane 5), 5 μM (lane 4), 1 μM (lane 3), or no CNI-H3094 (lane 2). The amount of pre-integration complexes available for interaction with karyopherin α was quantified as in FIG. 10.\nH9 cells were infected with equal amounts of wild-type HIV-1NLHX or with mutant HIV-1NLHX that lack Vpr (Vpr^−) or carry a mutation that inactivates the MA NLS (MA NLS^−). Infected cells were washed and incubated for 4 h. An aliquot of each sample was used to quantify the total HIV-1 DNA (FIG. 14A) and the rest was used to prepare cytoplasmic extracts. Extracts were incubated with 1 μM CNI-H0294 (FIG. 14B, lanes 2, 4, 6, 8) or were left untreated (lanes 1, 3, 5, 7). The amount of pre-integration complexes available for binding to karyopherin α was determined as in FIG. 10.\nH9 cells were infected with HIV-1 or HIV-like pseudovirions (Haffar, et al., 1990, J. Virol., 64:2653-2659) at a multiplicity adjusted according to p24 content (50 ng p24 per 10^6 cells) The MA NLS^− virus contains substitutions of isoleucine residues for lysines in positions 26 and 27 of MA in an NLHX backbone (Westervelt., et al., 1992, J. Virol. 66:2577-2582), thus inactivating the NLS. The Vpr^− virus has the initiating ATG of the vpr gene changed to GTG, thus abolishing expression of this gene. The ΔMA NLS pseudovirions have leucine substituting for lysine in position 28 of MA. This mutation abrogates nuclear translocation of HIV-1 gag RNA in growth-arrested H9 cells infected with pseudovirions. After a 1 hour absorption, excess viruses or pseudovirions were washed away, and cells were incubated for an additional 2-3 hour period at 37° C. prior to analysis.\nCytoplasmic extracts were prepared by lysing cells in cold extraction buffer (10 mM KCl, 10 mM Tris-HCl [pH 7.6], 0.5 mM MgCl2, 1 μg/ml each of leupeptin and aprotinin, and 1 MM phenylmethylsulfonyl fluoride [PMSF]) by 20-30 strokes of a Dounce homogenizer under the control of phase-contrast microscopy. After removal of nuclei, cytoplasmic extract was cleared by centrifugation at 15,000 g for 10 min.\nCytoplasmic extracts prepared from HIV-1-or pseudovirion-infected H9 cells were adjusted to 0.14 M NaCl, 0.1% Tween 20 and precleared with glutathione-Sepharose beads for 30 min. at room temperature. Karyopherin α was expressed as a fusion protein with glutathione S-transferase (GST) which can bind glutathione beads in solution. GST-karyopherin α immobilized on Sepharose beads was then added (about 50 μg of immobilized karyopherin α per extract from 108 infected cells) and the mixture was incubated at room temperature for another 30 min. Beads were then pelleted by centrifugation and washed 3 times with PBS supplemented with 0.1% Tween 20, 1 μg/ml each of leupeptin and aprotinin, and 1 mM PMSF. HIV-1 DNA was isolated from the beads by SDS-proteinase K treatment with subsequent phenol-chloroform extraction, while pseudovirion gag RNA was isolated by RNazol (Biotecx Laboratories Inc.)."}, "[2]": {"molecular_target": "T1, recombinant RT (p51/p66 heterodimer) (Human immunodeficiency virus type 1 group M subtype B, UniProt P04585)", "T1 construct": "recombinant MA or RT (a p51/p66 heterodimer)", "assay": "Binding of [14C]-CNI-H0294 to recombinant RT in solution (immunoprecipitation)", "set-up": "species or system HIV-1", "settings": "0.2 μM RT, 3.3 μM labeled CNI-H0294, increasing unlabeled compound", "protocol": "Twenty nmol of [^14C]-CNI-HO294 were mixed with 0.28 nmol of recombinant MA or RT (a p51/p66 heterodimer) in 40 μl of binding buffer. Samples were incubated for 2 h at 37° C. in the presence or absence of 200 nmol of unlabeled CNI-H0294. MA and RT proteins were immunoprecipitated using protein G agarose and sheep polyclonal anti-MA (αMA) or rabbit anti-RT (αRT) sera, respectively. Pre-immune sera (PI) was used as control. Bound material was eluted from protein G using 0.1 M glycine buffer [pH 2.8] and the radioactivity in the eluate was quantified in a scintillation counter.\nRecombinant RT (0.2 μM) was incubated with 3.3 μM of [^14C ]-labeled CNI-H0294 and increasing concentrations of unlabeled (cold) CNI-3094. The amount of [^14C]-CNI-H0294 that bound to RT was measured as in FIG. 11.\n0.28 nanomoles of recombinant MA or RT [p66/p51 ] dimer were mixed with 20 nmol of [^14C] CNI-HO294 (specific activity 5×10^4 cpm/nmol) and incubated 2 hr at room temperature in 40 μl of binding buffer (PBS supplemented with 1% BSA, 0.1% Tween 20, 1 μg/ml leupeptin, 1 μg/ml aprotinin, 1 mM PMSF). Sheep anti-MA or rabbit anti-RT sera (both obtained from NIH AIDS Research and Reference Reagent Program) or pre-immune control sera were then added (at 1:100 dilution) and incubation continued for another 1 hr at room temperature. Immune complexes were precipitated with protein G-agarose, washed, and then eluted with 0.1 M glycine, pH 2.8. Radioactivity of the eluate was measured in a scintillation counter."}}}
{"smiles": "COC(=O)c1cc(Nc2cc(C)nc(N)n2)cc(C(=O)OC)c1", "note": "[CNI-H3094]", "values": [{"measurement": "IC50", "setting": "HIV-1ADA; Human immunodeficiency virus 1, Monocyte, 216 h, day 9 after infection, >10 μM = 50% inhibition not achieved at maximal concentration, read-out: IC50", "value": "> 10", "unit": "µM"}, {"measurement": "effect on anti-HIV activity of CNI-H0294 in monocyte cultures", "setting": "HIV-1ADA; RT activity nine days after infection (FIG. 12C)", "value": "eliminated the inhibitory effect of CNI-H0294 on HIV-1 replication"}, {"measurement": "inhibition of binding of HIV-1 pre-integration complexes to karyopherin α", "setting": "[1]; 10 μM alone (FIG. 12B, lane 1)", "value": "did not inhibit"}, {"measurement": "effect on CNI-H0294 inhibition of pre-integration complex binding to karyopherin α", "setting": "[1]; 5-fold excess over 1 μM CNI-H0294", "value": "reduced significantly the inhibitory effect of CNI-H0294"}, {"measurement": "effect on CNI-H0294 inhibition of pre-integration complex binding to karyopherin α", "setting": "[1]; 10-fold excess over 1 μM CNI-H0294", "value": "completely eliminated the inhibitory effect"}, {"measurement": "competition with [14C]-labeled CNI-H0294 for binding to RT", "setting": "[2]", "value": "inhibits binding of [^14C]-labeled CNI-H0294 to RT in a dose-dependent manner"}]}
